Experimental data published in patent US20150005236A1, “USE OF BETA-NERVE GROWTH FACTOR FOR INDUCING OVULATION IN MAMMALS” (INSTITUT NATIONAL DE LA RECHERCHE AGRONOMIQUE, priority 2012, published 2015).
Where “and” joins values, the source holds several entries; their conditions need not be identical. Equal values may be shown once. Marks after values point to notes of the source that are not given here.

Columns and labels:
[1] = test system: female alpacas; assay: Induction of ovulation in alpacas (transrectal ultrasonography, plasma progesterone RIA); assay type: in vivo, alpaca; settings: for CL diameter: corpus luteum on day 8 following i.m. treatment; for CL diameter / Progesterone conc.: mean ± sem; for corpus lutea detected, % of alpacas: day 8 following treatment; for corpus lutea detected, % of alpacas / dominant follicle absent, % of female alpacas: n=5/group; for Progesterone conc.: plasma, day 8 following i.m. treatment, animals that did not ovulate excluded; for dominant follicle absent, % of female alpacas: ultrasonography 28-30 h following treatment
Method: The emergence of dominant follicles was synchronised with the 0.8 ml (200 μg) prostaglandin F2α (Estrumate®, Intervet) i.m. followed by 1 ml (4 μg) of Buserelin (Receptal®, Intervet) i.m. 24 h later, then luteolysis was induced 11 days after induced ovulation with 0.8 ml Estrumate®.
To determine the presence of a dominant follicle, females were restrained in sternal recumbency and examined by transrectal ultrasonography using an Aloka SSD-500 scanner with 7.5 MHz linear array transducer (Aloka Co., Japan). The ovaries of […] were scanned. Females with a newly emerged dominant follicle of 6-10 mm in diameter were randomly assigned to receive 1 of 4 treatments: (1) 1 ml 0.9% saline in, (n 5), (2) 1 ml (4 μg) Receptal® (Intervet) i.m (n=5), (3) 2 ml alpaca's seminal plasma i.m. collected as described above for Experiment ˜1 (n=5), (4) 1 mg recombinant active human β-NGF protein (Sino Biological, Japan) Lm. (n=5).
Animals were examined by transrectal ultrasonography 28-30 h following treatments to detect ovulation. Ovulation was defined as the absence of the dominant follicle that was observed during the previous scan at the time of treatment. Ultrasonography was also repeated 8 days following treatment, to confirm ovulation and determine the size of the corpus luteum.
(§1) Female alpacas were cannulated and jugular venous blood samples (5 ml) were collected for detection of luteinising hormone immediately before treatment, every 30 min for 4 h, then every 1 h for 4 h and finally at 12 h post-treatment. Jugular venous blood samples (5 ml) were also collected on day 8 at the time of ultrasonography for detection of plasma progesterone. Samples were placed in heparinised tubes, centrifuged at 2000×g for 10 min, the plasma decanted and stored at −20° C. until analysis.
(§2) Plasma LH concentration were determined using a RIA. Plasma progesterone concentrations were determined using a commercial double antibody RIA kit (Coat-a-Count).
International, Hemel Hempstead, UK) with post-hoc comparisons using the least significant difference (LSD) test where appropriate. Far all analyses P<0.05 was considered significant.
In this experiment, female alpacas (n 5/group) were administered i.m. with (1) 1 ml 0.9% saline, (2) 1 ml of the GnRH agonist Receptal® (3) 2 ml alpaca seminal plasma, or (4) 1 mg human β-NGF. Ovulation was detected by transrectal ultrasonography […] following treatment and confirmed by plasma progesterone concentrations.

[2] = test system: female alpacas; assay: LH concentration in peripheral blood of female alpacas (RIA); assay type: in vivo, alpaca; settings: for LH concentration in peripheral blood: 12 hours after i.m. injection, versus saline; for peak of LH, time after injection: i.m. injection, peripheral blood
Method: as §1, §2
The evolution of the concentration of LH in peripheral blood was assessed for 12 hours after the injections.

[3] = test system: glial cells associated with GnRH neurons; assay: Immunohistochemistry of the relations between GnRH neurons and glial cells; assay type: cell-based, mouse; settings: 20 min application at 75 nM, then K+ stimulation; not in control conditions
Method: An immunohistochemical approach was used to characterize the cells present in the culture, using anti-GnRH antibody for the GnRH neurons, anti-S100b antibody for the glial cells and anti-P75 antibody (P75 is a NGF-specific receptor). The analysis was carried out by confocale microscopy.
Nasal explants were fixed in 4% formaldehyde [45-60 min, rinsed in PBS (3×10 min)], blocked (1 h, 10% normal goat serum, 0.3% Triton X-100, and 0.1% sodium azide), rinsed in PBS (3×8 min), and incubated overnight in anti-GnRH-1 (1:3000, SW-1). Antibodies were diluted in PBS containing 10% normal goat serum, 0.3% Triton X-100, and 0.1% sodium azide. The next day, the explants were rinsed in PBS (3×8 min), incubated in secondary antibody ant rabbit Alexa 546 (1:500, 1 h; Molecular Probes, Inc., Eugene Oreg.) and rinsed in PBS (4×8 min). Explants incubated with fluorescent dies were mounted with Vector Shield (Vector Laboratories).
The relations between GnRH neurons and glial cells have been analyzed by immunohistochemistry after 20 min of recording in calcic imaging, for the control and after 20 min of application of β-NGF at 75 nM in the culture medium, and after K^+ stimulation. The glial cells retract after K^+ stimulation in the presence of β-NGF, but not in control conditions.

[4] = test system: mouse GnRH neurons; assay: Calcium imaging of primary culture of GnRH neurons; assay type: cell-based
Description: A model of primary culture of GnRH neurons has been developed from explants of olfactory placodes of mouse embryos (Constantin et al., 2009). This model has three stages of in vitro development: from 1 to 3 days, intra-explant migration, corresponding to an in vivo intranasal migration; from 3 to […] days, out-of explant migration, corresponding to an in vivo intracerebral development; from 7 to 15 days, occurrence of the pulsatile secretion, corresponding to neuronal and network maturation.
This experiment was carried out between 7 and 15 days of in vitro development corresponding to a stage of mature GnRH neurons having a pulsatile GnRH secretion.
Embryos were obtained from timed pregnant animals. Nasal pits of embryonic d 11.5 staged Swiss mice were isolated under aseptic conditions and refrigerated for 1 h in Gey's balanced salt solution (Eurobio, Les Ulis, France) enriched with glucose (Sigma-Aldrich Corp., St. Louis, Mo.). Nasal explants were adhered onto coverslips by a chicken plasma (local source)/thrombin (Sigma-Aldrich) clot. […]
These variations were measured by “time lapse” imaging in the primary culture of GnRH neurons. A quantitative analysis was carried out for single neurons but also overall for a group of neurons constituting part of the network. […]
Calcium Green-1 was visualized using an inverted microscope (DM-IRB; Leica. Microsystems GmbH, Wetzlar, Germany), through a ×20 fluorescence objective, and acquired using a cooled intensified charge-coupled device camera (CoolSNAP fx; Rapper Instruments, Photometrics, Tucson, Ariz.). Experiments were piloted by Metafluor (Molecular Devices, Downingtown, Pa.), controlling the shutter and the acquisition (every 20 sec for 3 h), Excitation wavelengths were provided through a medium-width excitation bandpass filter at 465-495 nm, and emission was monitored through a 40-nm bandpass centered on 535 nm. Fluctuations in [Ca2+]i were analyzed a posteriori with Metafluor software. […] Calcium Green-1 fluorescence intensity was plotted and analyzed with Excel (Microsoft Corp., Redmond, Wash.). […]

[5] = test system: female rabbits; assay: Induction of ovulation in female rabbits; assay type: in vivo, rabbit; settings: for Ovulation (%): ovulation frequency, i.m. injection
Method: A herd of 83 female rabbits of proven fertility was used in this experiment.
The female rabbits were synchronized by an injection of eGG 48 hours before insemination. Then they were inseminated with a mixture of semen from several males. The same mixture was used for all females.
The female rabbits were killed 48 hours after insemination. The ovaries were collected to proceed to counting the corpora lutea, pre-ovulatory follicles of diameter higher than 1 mm and atretic follicles, and to identify potential pseudopregnant females. The oviducts were infused in order to count oocytes and embryos and to evaluate the developmental stage of the latter (number of blastomeres of the embryo).
The results were analysed with the software SAS using a fixed-effects variance analysis, taking into account the fixed effect of the treatment (4 levels: GnRH, β-NGF, PS and saline).

[6] = 48 hours after insemination, estimated mean values

Compound | CL diameter [1] | corpus lutea detected, % of alpacas [1] [%] | Progesterone conc. [1] | dominant follicle absent, % of female alpacas [1] [%] | LH concentration in peripheral blood [2] | peak of LH, time after injection [2] [h] | glial cells after K+ stimulation [3] | time to LH surge after treatment ([2]; 1 mg i.m.) [h] | percent of synchronization events involving more than 70% of the recorded GnRH neurons ([4]; 75 nM in the culture medium) | synchronization of calcic events between GnRH neurons ([4]; 20 min after application at 75 nM) | fold decrease in average time between two calcium events ([4]; 20 min after application at 75 nM in the culture medium, versus control (about 15 s)) | Ovulation (%) [5] | Collected embryos [5, 6] | Corpora lutea (number by injected female rabbit) [5, 6] | Haemorrhagic follicles [5, 6]
CCNC(=O)[C@@H]1CCCN1C(=O)[C@H](CCCNC(=N)N)NC(=O)[C@H](CC(C)C)NC(=O)[C@@H](COC(C)(C)C)NC(=O)[C@H](Cc1ccc(O)cc1)NC(=O)[C@H](CO)NC(=O)[C@H](Cc1c[nH]c2ccccc12)NC(=O)[C@H](Cc1cnc[nH]1)NC(=O)[C@@H]1CCC(=O)N1 [Receptal, Buserelin, reference compound] | 9.3 ± 1.49^a mm | 80 | 4.01 ± 0.897^b ng/ml | 80 | significant increase | 3 | – | – | – | – | – | – | – | – | –
beta-Nerve Growth Factor [β-NGF] | 10.3 ± 1.03^a mm | 80 | 3.28 ± 0.681^b ng/ml | 80 | significant increase | 3 | retract | ≤ 8 | increase | increased | 3 | 25% and 25.0^b % | – | – | –
GnRH: 0.2 ml of Fertagyl® containing 20 μg of GnRH (Gonadotrophine Releasing Hormone), positive control (QHWSYGLRPG; Gonadoliberin-1; UniProt P01148 24-33, looked up) | – | – | – | – | – | – | – | – | – | – | – | 100% and 100^a % | 12.09^a | 13.82^a | 1.36^a
